Our source for the target mRNA knockdown values is the OligoGym collection.

Where “and” joins values, the source holds several entries; their conditions need not be identical. Equal entries are not always repeated. HELM strings list units from the 5' end as sugar, base in round brackets, then linkage (d deoxyribose, r ribose, m 2'-O-methyl, p phosphodiester). Strings are as the collection lists them, not checked against the first reports. ss, as = sense and antisense strand; [lna] = locked nucleic acid (LNA); [hna] = hexitol nucleic acid; [fl2r] = 2'-fluoro
Note: test system not given here.

The conditions of this data set: siRNA.
The substance “RNA1{r(U)p.r(A)p.r(A)p.r(G)p.r(A)p.r(U)p.r(G)p.r(U)p.r(U)p.r(C)p.r(A)p.r(U)p.r(C)p.r(G)p.r(A)p.r(G)p.r(U)p.r(C)p.r(C)p.d(T)p.d(T)}|RNA2{r(G)p.r(G)p.r(A)p.r(C)p.r(U)p.r(C)p.r(G)p.r(A)p.r(U)p.r(G)p.r(A)p.r(A)p.r(C)p.r(A)p.r(U)p.r(C)p.r(U)p.r(U)p.r(A)p.d(T)p.d(T)}$$$RNA1{StrandType:ss}|RNA2{StrandType:as}$” came in with a target mRNA knockdown of 0%. Regarding “RNA1{r(A)p.r(U)p.r(C)p.r(U)p.r(G)p.r(A)p.r(A)p.r(G)p.r(A)p.r(A)p.r(G)p.r(G)p.r(A)p.r(G)p.r(A)p.r(A)p.r(A)p.r(A)p.r(A)p.r(T)p.r(T)}|RNA2{[lna](T)p.r(U)p.r(U)p.r(U)p.r(U)p.r(C)p.r(U)p.r(C)p.r(C)p.r(U)p.r(U)p.r(C)p.r(U)p.r(U)p.r(C)p.r(A)p.r(G)p.r(A)p.r(U)p.[lna](T)p.[lna](T)}$$$RNA1{StrandType:ss}|RNA2{StrandType:as}$”, the target mRNA knockdown was 22%. “RNA1{r(A)p.r(G)p.r(A)p.r(A)p.r(A)p.r(A)p.r(G)p.m(C)p.r(A)p.r(G)p.r(C)p.r(G)p.r(A)p.m(U)p.r(A)p.r(C)p.r(G)p.r(C)p.r(U)p.r(T)p.r(T)}|RNA2{r(A)p.r(G)p.r(C)p.r(G)p.r(U)p.r(A)p.r(U)p.r(C)p.r(G)p.r(C)p.m(U)p.r(G)p.r(C)p.r(U)p.r(U)p.r(U)p.r(U)p.r(C)p.r(U)p.r(T)p.r(T)}$$$RNA1{StrandType:ss}|RNA2{StrandType:as}$” registered a target mRNA knockdown of 68%. On to “RNA1{r(C)p.r(U)p.r(U)p.r(A)p.r(C)p.r(G)p.r(C)p.r(U)p.r(G)p.r(A)p.r(G)p.r(U)p.r(A)p.r(C)p.r(U)p.r(U)p.r(C)p.r(G)p.r(A)p.r(T)p.r(T)}|RNA2{r(T)p.r(C)p.r(G)p.r(A)p.r(A)p.r(G)p.r(U)p.r(A)p.r(C)p.r(U)p.r(C)p.r(A)p.r(G)p.r(C)p.r(G)p.r(U)p.[lna](A)p.r(A)p.r(G)p.[lna](T)p.[lna](T)}$$$RNA1{StrandType:ss}|RNA2{StrandType:as}$”, for which the target mRNA knockdown was 96%. As for “RNA1{r(C)p.r(U)p.r(U)p.r(A)p.r(C)p.r(G)p.r(C)p.r(U)p.r(G)p.r(A)p.r(G)p.r(U)p.r(A)p.r(C)p.r(U)p.r(U)p.r(C)p.r(G)p.r(A)p.[lna](T)p.[lna](T)}|RNA2{r(U)p.r(C)p.r(G)p.r(A)p.r(A)p.r(G)p.r(U)p.r(A)p.r(C)p.r(U)p.r(C)p.r(A)p.r(G)p.r(C)p.r(G)p.r(U)p.r(A)p.r(A)p.r(G)p.r(T)p.r(T)}$$$RNA1{StrandType:ss}|RNA2{StrandType:as}$”, the target mRNA knockdown was found to be 97%. Take “RNA1{m(C)p.m(G)p.m(U)p.m(A)p.m(C)p.m(G)p.r(C)p.r(G)p.r(G)p.r(A)p.r(A)p.r(U)p.r(A)p.r(C)p.r(U)p.r(U)p.r(C)p.r(G)p.r(A)p.r(T)p.r(T)}|RNA2{r(U)p.r(C)p.r(G)p.r(A)p.r(A)p.r(G)p.r(U)p.r(A)p.r(U)p.r(U)p.r(C)p.r(C)p.r(G)p.r(C)p.r(G)p.r(U)p.r(A)p.r(C)p.r(G)p.r(T)p.r(T)}$$$RNA1{StrandType:ss}|RNA2{StrandType:as}$”: the target mRNA knockdown was 94.8%. Turning to “RNA1{r(G)p.r(U)p.r(G)p.r(A)p.r(A)p.r(G)p.r(U)p.r(C)p.r(A)p.r(A)p.r(C)p.r(A)p.r(U)p.r(G)p.r(C)p.r(C)p.r(U)p.r(G)p.r(C)p.d(T)p.d(T)}|RNA2{r(G)p.r(C)p.r(A)p.r(G)p.r(G)p.r(C)p.r(A)p.r(U)p.r(G)p.r(U)p.r(U)p.r(G)p.r(A)p.r(C)p.r(U)p.r(U)p.r(C)p.r(A)p.r(C)p.d(T)p.d(T)}$$$RNA1{StrandType:ss}|RNA2{StrandType:as}$”, the target mRNA knockdown was 50% and 70%. “RNA1{[hna](G)p.[hna](A)p.[hna](C)p.r(G)p.r(U)p.r(A)p.r(A)p.r(A)p.r(C)p.r(G)p.r(G)p.r(C)p.r(C)p.r(A)p.r(C)p.r(A)p.r(A)p.[hna](G)p.[hna](U)p.[hna](U)p.d(T)}|RNA2{r(A)p.r(C)p.r(U)p.r(U)p.r(G)p.r(U)p.r(G)p.r(G)p.r(C)p.r(C)p.r(G)p.r(U)p.r(U)p.r(U)p.r(A)p.r(C)p.r(G)p.r(U)p.r(C)p.r(G)p.r(C)}$$$RNA1{StrandType:ss}|RNA2{StrandType:as}$” registered a target mRNA knockdown of 89%.

In turn, “RNA1{m(U)p.r(A)p.r(A)p.r(A)p.r(G)p.r(C)p.r(U)p.r(G)p.r(G)p.r(A)p.r(A)p.r(A)p.r(G)p.r(G)p.r(G)p.r(A)p.r(C)p.r(G)p.r(G)p.r(T)p.r(T)}|RNA2{r(C)p.r(C)p.r(G)p.r(U)p.r(C)p.r(C)p.r(C)p.r(U)p.r(U)p.r(U)p.r(C)p.r(C)p.r(A)p.r(G)p.r(C)p.r(U)p.r(U)p.m(U)p.r(A)p.r(T)p.r(T)}$$$RNA1{StrandType:ss}|RNA2{StrandType:as}$” registered a target mRNA knockdown of 67%. Take “RNA1{r(C)p.r(U)p.r(U)p.r(A)p.r(C)p.r(G)p.r(C)p.r(U)p.r(G)p.r(A)p.r(G)p.r(U)p.r(A)p.r(C)p.r(U)p.r(U)p.r(C)p.r(G)p.r(A)p.r(T)p.r(T)}|RNA2{r(T)p.r(C)p.r(G)p.r(A)p.[lna](A)p.r(G)p.r(U)p.r(A)p.r(C)p.r(U)p.r(C)p.r(A)p.r(G)p.r(C)p.r(G)p.r(U)p.r(A)p.r(A)p.r(G)p.[lna](T)p.[lna](T)}$$$RNA1{StrandType:ss}|RNA2{StrandType:as}$”: the target mRNA knockdown was determined as 88%. The figure for “RNA1{r(A)p.r(G)p.r(C)p.r(C)p.r(U)p.r(C)p.r(C)p.r(A)p.r(A)p.r(A)p.r(C)p.r(U)p.r(C)p.r(C)p.r(U)p.r(A)p.r(G)p.r(C)p.r(U)p.r(T)p.r(T)}|RNA2{r(A)p.r(G)p.r(C)p.m(U)p.r(A)p.r(G)p.r(G)p.r(A)p.r(G)p.r(U)p.r(U)p.m(U)p.r(G)p.r(G)p.r(A)p.r(G)p.r(G)p.r(C)p.r(U)p.r(T)p.r(T)}$$$RNA1{StrandType:ss}|RNA2{StrandType:as}$” is 70%; for “RNA1{[fl2r](C)p.[fl2r](U)p.r(A)p.[fl2r](G)p.r(A)p.r(G)p.[fl2r](G)p.r(A)p.[fl2r](U)p.[fl2r](C)p.[fl2r](U)p.[fl2r](U)p.r(G)p.r(A)p.[fl2r](A)p.r(G)p.r(A)p.[fl2r](C)p.[fl2r](C)p.r(T)p.r(T)}|RNA2{r(G)p.r(G)p.[fl2r](U)p.[fl2r](C)p.[fl2r](U)p.[fl2r](U)p.[fl2r](C)p.r(A)p.r(A)p.r(G)p.r(A)p.[fl2r](U)p.[fl2r](C)p.[fl2r](C)p.[fl2r](U)p.[fl2r](C)p.[fl2r](U)p.r(A)p.r(G)p.r(T)p.r(T)}$$$RNA1{StrandType:ss}|RNA2{StrandType:as}$” it is 12%; for “RNA1{r(G)p.r(G)p.r(A)p.r(G)p.r(C)p.r(A)p.r(C)p.r(G)p.r(C)p.r(U)p.m(U)p.r(A)p.r(C)p.m(U)p.r(A)p.r(C)p.r(C)p.r(U)p.r(U)p.r(T)p.r(T)}|RNA2{r(A)p.r(A)p.r(G)p.r(G)p.m(U)p.r(A)p.r(G)p.m(U)p.r(A)p.r(A)p.r(G)p.r(C)p.r(G)p.r(U)p.r(G)p.r(C)p.r(U)p.r(C)p.r(C)p.r(T)p.r(T)}$$$RNA1{StrandType:ss}|RNA2{StrandType:as}$” it is 69%. With “RNA1{[fl2r](A)p.r(C)p.[fl2r](G)p.r(G)p.[fl2r](C)p.r(U)p.[fl2r](C)p.r(G)p.[fl2r](C)p.r(U)p.[fl2r](A)p.r(C)p.[fl2r](C)p.r(C)p.[fl2r](U)p.r(C)p.[fl2r](G)p.r(A)p.r(C)p.r(T)p.r(T)}|RNA2{r(G)p.r(U)p.r(C)p.r(G)p.r(A)p.r(G)p.r(G)p.r(G)p.r(U)p.r(A)p.r(G)p.r(C)p.r(G)p.r(A)p.r(G)p.r(C)p.r(C)p.r(G)p.r(U)p.r(T)p.r(T)}$$$RNA1{StrandType:ss}|RNA2{StrandType:as}$”, the target mRNA knockdown was 72%.
